# Assay results published in US20240327382A1 (ALMAC DISCOVERY LIMITED, priority 2021, published 2024).
# Target: T1, Full-length USP19 (Homo sapiens, UniProt O94966)
# T1 construct: Full-length USP19 was purchased from Boston Biochem (E-576); purchased Boston Biochem E-576
# T1 sequence (O94966 1-1318): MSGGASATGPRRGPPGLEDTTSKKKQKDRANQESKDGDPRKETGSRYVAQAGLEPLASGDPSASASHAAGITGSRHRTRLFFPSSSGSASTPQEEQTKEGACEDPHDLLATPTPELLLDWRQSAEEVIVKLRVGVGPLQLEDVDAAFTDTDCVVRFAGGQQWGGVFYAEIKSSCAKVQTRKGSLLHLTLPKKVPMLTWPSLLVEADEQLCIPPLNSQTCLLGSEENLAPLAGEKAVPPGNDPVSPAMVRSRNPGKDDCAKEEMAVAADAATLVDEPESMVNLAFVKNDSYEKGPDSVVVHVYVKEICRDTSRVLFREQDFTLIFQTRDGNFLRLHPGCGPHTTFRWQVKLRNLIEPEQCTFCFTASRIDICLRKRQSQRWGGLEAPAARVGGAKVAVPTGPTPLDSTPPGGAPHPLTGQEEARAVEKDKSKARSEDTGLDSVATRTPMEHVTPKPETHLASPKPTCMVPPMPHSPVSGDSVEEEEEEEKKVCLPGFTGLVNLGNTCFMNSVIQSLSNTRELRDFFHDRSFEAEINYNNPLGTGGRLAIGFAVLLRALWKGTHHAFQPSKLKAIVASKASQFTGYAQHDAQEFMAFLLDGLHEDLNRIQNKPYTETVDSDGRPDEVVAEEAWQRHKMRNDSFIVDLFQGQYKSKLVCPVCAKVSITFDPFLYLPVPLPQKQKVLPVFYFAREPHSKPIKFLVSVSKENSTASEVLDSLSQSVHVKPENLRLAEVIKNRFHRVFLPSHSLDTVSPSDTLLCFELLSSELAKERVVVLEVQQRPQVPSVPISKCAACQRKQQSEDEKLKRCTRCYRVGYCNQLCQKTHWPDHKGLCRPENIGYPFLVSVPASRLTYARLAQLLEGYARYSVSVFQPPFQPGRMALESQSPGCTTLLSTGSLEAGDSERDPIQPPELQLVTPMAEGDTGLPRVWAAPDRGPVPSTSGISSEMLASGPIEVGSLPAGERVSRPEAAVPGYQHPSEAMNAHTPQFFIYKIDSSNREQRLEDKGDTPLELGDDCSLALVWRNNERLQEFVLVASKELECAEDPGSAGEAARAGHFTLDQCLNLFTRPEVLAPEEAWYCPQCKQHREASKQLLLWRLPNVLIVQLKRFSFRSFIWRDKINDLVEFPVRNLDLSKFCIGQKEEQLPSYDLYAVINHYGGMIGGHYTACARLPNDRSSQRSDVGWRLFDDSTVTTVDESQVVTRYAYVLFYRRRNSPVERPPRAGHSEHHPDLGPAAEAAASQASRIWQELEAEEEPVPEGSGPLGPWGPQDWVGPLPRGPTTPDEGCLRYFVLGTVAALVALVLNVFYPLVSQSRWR
# Test: USP19 fluorescence polarisation (FP) assay, Ubiquitin-Lys-TAMRA substrate
# Assay type: biochemical
# Settings: average of at least two duplicate experiments
# Procedure, shortened: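 Full-length human USP19 (added at 2.5 nM) was preincubated 30 min at RT with inhibitor (serial dilutions 200 μM to 2 μM) in 50 mM HEPES pH 7.4, 150 mM NaCl, 5 mM DTT, 0.05% BSA, 0.05% CHAPS. Ubiquitin-Lys-TAMRA isopeptide substrate (added at 500 nM) started the reaction, and FP (Ex 530/Em 575 nm) was read every 15 min over 90 min. IC50 came from non-linear regression of signal normalised to no-compound control, averaged over at least two duplicate experiments.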
row,IC50 [nM],SMILES
1,< 10,"CN[C@@H]1CCN(C(=O)N2CC[C@@H](Cn3cnc4ccc(F)cc4c3=O)C3(CCCC3)C2)[C@H](c2cc(F)cc(F)c2)C1 [Example 153, 3-(((R)-7-((2S,4R)-2-(3,5-Difluorophenyl)-4-(methylamino)piperidine-1-carbonyl)-7-azaspiro[4.5]decan-10-yl)methyl)-6-fluoroquinazolin-4(3H)-one]"
2,100 to 1000,N[C@@H]1CCN(C(=O)N2CC[C@H](Cn3cnc(-c4ccccc4)cc3=O)C3(CCCC3)C2)[C@H](c2ccccc2)C1 [Example 26]
3,1000 to 20000,"O=C(N1CC[C@@H](Cn2cnc(-c3ccccc3)cc2=O)C2(CCCC2)C1)N1CC[C@@H](Nc2ccccc2)C[C@H]1c1ccccc1 [Example 150, 6-Phenyl-3-(((R)-7-((2S,4R)-2-phenyl-4-(phenylamino)piperidine-1-carbonyl)-7-azaspiro[4.5]decan-10-yl)methyl)pyrimidin-4(3H)-one]"
4,100 to 1000,"CN[C@@H]1CCN(C(=O)N2CC[C@@H](Cn3cccnc3=O)C3(CCCC3)C2)[C@H](c2ccc(F)cc2F)C1 [Example 128, 1-(((R)-7-((2S,4R)-2-(2,4-Difluorophenyl)-4-(methylamino)piperidine-1-carbonyl)-7-azaspiro[4.5]decan-10-yl)methyl)pyrimidin-2(1H)-one]"
5,< 10,"CC1(C)CN(C(=O)N2CC[C@@H](N)C[C@H]2c2ccccc2)CCC1Cn1ccc(-c2ccccc2)cc1=O (stereo partly drawn) [Example 21, 1-((1-((2S,4R)-4-Amino-2-phenylpiperidine-1-carbonyl)-3,3-dimethylpiperidin-4-yl)methyl)-4-phenylpyridin-2(1H)-one]"
6,< 10,"N[C@H]1C[C@@H](c2ccccc2)N(C(=O)N2CC[C@@H](Cn3cnc(-c4ccccc4)cc3=O)C3(CCCC3)C2)C1 [Example 70, 3-(((R)-7-((2S,4S)-4-Amino-2-phenylpyrrolidine-1-carbonyl)-7-azaspiro[4.5]decan-10-yl)methyl)-6-phenylpyrimidin-4(3H)-one]"
7,< 10,"O=C(O)CN[C@@H]1CCN(C(=O)N2CC[C@@H](Cn3cnc(-c4ccccc4)cc3=O)C3(CCCC3)C2)[C@H](c2ccccc2)C1 [Example 106, Sodium ((2S,4R)-1-((R)-10-((6-Oxo-4-phenylpyrimidin-1(6H)-yl)methyl)-7-azaspiro[4.5]decane-7-carbonyl)-2-phenylpiperidin-4-yl)glycinate]"
8,10 to 100,"CN[C@@H]1CCN(C(=O)N2CC[C@@H](Cn3ncccc3=O)C3(CCCC3)C2)[C@H](c2ccc(F)cc2F)C1 [Example 129, 2-(((R)-7-((2S,4R)-2-(2,4-Difluorophenyl)-4-(methylamino)piperidine-1-carbonyl)-7-azaspiro[4.5]decan-10-yl)methyl)pyridazin-3(2H)-one]"
9,< 10,"CN[C@@H]1CCN(C(=O)N2CC[C@@H](Cn3ccc(-c4ccccc4)cc3=O)C(C)(C)C2)[C@H](c2ccccc2)C1 [Example 72, 1-(((R)-3,3-Dimethyl-1-((2S,4R)-4-(methylamino)-2-phenylpiperidine-1-carbonyl)piperidin-4-yl)methyl)-4-phenylpyridin-2(1H)-one]"
10,< 10,"O=C(N1CC[C@@H](Cn2cnc(-c3ccccc3)cc2=O)C2(CCCC2)C1)N1CC[C@@H](NCC(F)F)C[C@H]1c1ccccc1 [Example 71, 3-(((R)-7-((2S,4R)-4-((2,2-Difluoroethyl)amino)-2-phenylpiperidine-1-carbonyl)-7-azaspiro[4.5]decan-10-yl)methyl)-6-phenylpyrimidin-4(3H)-one]"
11,< 10,"CN[C@@H]1CCN(C(=O)N2CC[C@@H](Cn3cnc4ccccc4c3=O)C3(CCCC3)C2)[C@H](c2cc(F)ccc2F)C1 [Example 199, 3-(((R)-7-((2S,4R)-2-(2,5-Difluorophenyl)-4-(methylamino)piperidine-1-carbonyl)-7-azaspiro[4.5]decan-10-yl)methyl)quinazolin-4(3H)-one]"
12,< 10,"CN[C@@H]1CCN(C(=O)N2CC[C@](Cn3ccc(-c4ccccc4)cc3=O)(OC)C3(CCCC3)C2)[C@H](c2ccccc2)C1 [Example 58, 1-(((S)-10-Methoxy-7-((2S,4R)-4-(methylamino)-2-phenylpiperidine-1-carbonyl)-7-azaspiro[4.5]decan-10-yl)methyl)-4-phenylpyridin-2(1H)-one]"
13,< 10,O=C(O)CN[C@@H]1CCN(C(=O)N2CC[C@@H](Cn3cnc(-c4ccccc4)cc3=O)C3(CCCC3)C2)[C@H](c2cc(F)ccc2F)C1 [Example 158]
14,10 to 100,"CC1(C)CN(C(=O)N2CCNC[C@H]2c2ccccc2)CCC1Cn1cnc(-c2ccccc2)cc1=O (stereo partly drawn) [Example 18, 3-((33-Dimethyl-1-((R)-2-phenylpiperazine-1-carbonyl)piperidin-4-yl)methyl)-6-phenylpyrimidin-4(3H)-one]"
15,10 to 100,"O=C(N1CC[C@@H](Cn2ccc(Cl)cc2=O)C2(CCCC2)C1)N1CC[C@@H](NCC(F)F)C[C@H]1c1cc(F)ccc1F [Example 185, 4-Chloro-1-(((R)-7-((2S,4R)-4-((2,2-difluoroethyl)amino)-2-(2,5-difluorophenyl)piperidine-1-carbonyl)-7-azaspiro[4.5]decan-10-yl)methyl)pyridin-2(1H)-one]"
16,< 10,"O=C(N1CC[C@@H](Cn2cnc(-c3ccccc3)cc2=O)C2(CCCC2)C1)N1CC[C@@H](NC2CC(F)(F)C2)C[C@H]1c1ccccc1 [Example 135, 3-(((R)-7-((2S,4R)-4-((3,3-Difluorocyclobutyl)amino)-2-phenylpiperidine-1-carbonyl)-7-azaspiro[4.5]decan-10-yl)methyl)-6-phenylpyrimidin-4(3H)-one]"
17,10 to 100,"O=C(N1CC[C@@H](Cn2ccc(Cl)cc2=O)C2(CCCC2)C1)N1CC[C@@H](NC2CC(F)(F)C2)C[C@H]1c1cc(F)ccc1F [Example 186, 4-Chloro-1-(((R)-7-((2S,4R)-4-((3,3-difluorocyclobutyl)amino)-2-(2,5-difluorophenyl)piperidine-1-carbonyl)-7-azaspiro[4.5]decan-10-yl)methyl)pyridin-2(1H)-one]"
18,< 10,"N[C@@H]1CCN(C(=O)N2CC[C@@H](Cn3ccc(Cl)cc3=O)C3(CCCC3)C2)[C@H](c2ccccc2)C1 [Example 67, 1-(((R)-7-((2S,4R)-4-Amino-2-phenylpiperidine-1-carbonyl)-7-azaspiro[4.5]decan-10-yl)methyl)-4-chloropyridin-2(1H)-one]"
19,< 10,"COc1ccccc1-c1ccn(C[C@@H]2CCN(C(=O)N3CC[C@@H](N)C[C@H]3c3cc(F)ccc3F)CC23CCCC3)c(=O)c1 [Example 89, 1-(((R)-7-((2S,4R)-4-Amino-2-(2,5-difluorophenyl)piperidine-1-carbonyl)-7-azaspiro[4.5]decan-10-yl)methyl)-4-(2-methoxyphenyl)pyridin-2(1H)-one]"
20,< 10,"O=C(N1CC[C@@H](Cn2cnc(-c3ccccc3)cc2=O)C2(CCCC2)C1)N1CC[C@@H](NCCF)C[C@H]1c1cccc(F)c1 [Example 196, 3-(((R)-7-((2S,4R)-4-((2-Fluoroethyl)amino)-2-(3-fluorophenyl)piperidine-1-carbonyl)-7-azaspiro[4.5]decan-10-yl)methyl)-6-phenylpyrimidin-4(3H)-one]"
21,< 10,"CC(C)(C)OC(=O)CN[C@@H]1CCN(C(=O)N2CC[C@@H](Cn3cnc(-c4ccccc4)cc3=O)C3(CCCC3)C2)[C@H](c2cc(F)ccc2F)C1 [Example 154, tert-Butyl ((2S,4R)-2-(2,5-difluorophenyl)-1-((R)-10-((6-oxo-4-phenylpyrimidin-1(6H)-yl)methyl)-7-azaspiro[4.5]decane-7-carbonyl)piperidin-4-yl)glycinate]"
22,< 10,"N[C@@H]1CCN(C(=O)N2CCC(Cn3ccc(C(F)F)cc3=O)C3(CCCC3)C2)[C@H](c2ccccc2)C1 (stereo partly drawn) [Example 38, 1-((7-((2S,4R)-4-Amino-2-phenylpiperidine-1-carbonyl)-7-azaspiro[4.5]decan-10-yl)methyl)-4-(difluoromethyl) pyridin-2(1H)-one]"
